In this test the test system is BDF1 mice, L1210 leukemia sc, survival T/C. Description: NCI In Vivo Anticancer Drug Screen. Data for tumor model L1210 Leukemia (subcutaneous) in B6D2F1 (BDF1) mice. The conditions noted are these: higher = longer survival. In a few lines:
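Tumors were transplanted into mice, the animals were treated with compound, survival or tumor size was then measured, and treated values were divided by vehicle-control values.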

The mark [1] stands for this setting: endpoint: median survival time, dose: 14.0 mg/kg/injection, schedule: Q01DX Z (sc), vehicle: saline.
The mark [2] stands for this setting: endpoint: median survival time, dose: 23.0 mg/kg/injection, schedule: Q01DX Z (sc), vehicle: saline.
The mark [3] stands for this setting: endpoint: median survival time, dose: 65.0 mg/kg/injection, schedule: Q01DX Z (sc), vehicle: saline.
Setting [4] is: endpoint: median survival time, dose: 108.0 mg/kg/injection, schedule: Q01DX Z (sc), vehicle: saline.
Setting [5] is: endpoint: median survival time, dose: 180.0 mg/kg/injection, schedule: Q01DX Z (sc), vehicle: saline.
Setting [6] is: endpoint: median survival time, dose: 14.0 mg/kg/injection, schedule: Q01DX Z (sc), vehicle: carboxymethylcellulose (CMC).
Where [7] appears, read: endpoint: median survival time, dose: 23.0 mg/kg/injection, schedule: Q01DX Z (sc), vehicle: carboxymethylcellulose (CMC).
The mark [8] stands for this setting: endpoint: median survival time, dose: 180.0 mg/kg/injection, schedule: Q01DX Z (sc), vehicle: carboxymethylcellulose (CMC).
The mark [9] stands for this setting: endpoint: median survival time, dose: 300.0 mg/kg/injection, schedule: Q01DX Z (sc), vehicle: carboxymethylcellulose (CMC).

Structures are written as SMILES. Several values for one entry are separate records, joined by “and”; a condition that tells them apart may be missing. Equal values may be shown once. Toxic doses and inconclusive results are not listed.

As for `O=c1[nH]c(=O)n(C2CC(O)C(CO)O2)cc1I` (stereo not drawn), the T/C under setting [1] was 100 % of control; the T/C under setting [2] is 100 % of control; the T/C (endpoint: median survival time, dose: 39.0 mg/kg/injection, schedule: Q01DX Z (sc), vehicle: saline) is 106 % of control; the T/C under setting [3] was 103 % of control; the T/C under setting [4] was 103 % of control; the T/C under setting [5] is 100 % of control.

As to `CN(C)CCNc1ccc([N+](=O)[O-])c2sc3ccccc3c(=O)c12`, the T/C by setting is: under setting [6], 100 % of control; under setting [7], 100 % of control; (endpoint: median survival time, dose: 39.0 mg/kg/injection, schedule: Q01DX Z (sc), vehicle: carboxymethylcellulose (CMC)) 100 % of control; (endpoint: median survival time, dose: 65.0 mg/kg/injection, schedule: Q01DX Z (sc), vehicle: carboxymethylcellulose (CMC)) 100 % of control and 111 % of control; (endpoint: median survival time, dose: 108.0 mg/kg/injection, schedule: Q01DX Z (sc), vehicle: carboxymethylcellulose (CMC)) 100 % of control; under setting [8], 111 % of control. Moreover, the T/C under setting [9] is 105 % of control.

With `NC(CSC(c1ccccc1)(c1ccccc1)c1ccccc1)C(=O)O` (stereo not drawn), the T/C reads like this: (endpoint: median survival time, dose: 5.0 mg/kg/injection, schedule: Q03HX003 (sc), vehicle: saline) 114 % of control; (endpoint: median survival time, dose: 8.4 mg/kg/injection, schedule: Q03HX003 (sc), vehicle: saline) 117 % of control; (endpoint: median survival time, dose: 23.0 mg/kg/injection, schedule: Q03HX003 (sc), vehicle: saline) 150 % of control; (endpoint: median survival time, dose: 39.0 mg/kg/injection, schedule: Q03HX003 (sc), vehicle: saline) 92 % of control; (endpoint: median survival time, dose: 65.0 mg/kg/injection, schedule: Q01DX009 (sc), vehicle: saline) 150 % of control; (endpoint: median survival time, dose: 108.0 mg/kg/injection, schedule: Q04DX003 (sc), vehicle: saline) 121 % of control. Further, the T/C runs as follows: (endpoint: median survival time, dose: 300.0 mg/kg/injection, schedule: Q02DX005 (sc), vehicle: saline) 89 % of control; (endpoint: median survival time, dose: 500.0 mg/kg/injection, schedule: Q02DX005 (sc), vehicle: saline) 92 % of control; (endpoint: median survival time, dose: 833.0 mg/kg/injection, schedule: Q04DX003 (sc), vehicle: saline) 114 % of control.

Consider `CN(N=O)C(N)=O`, for which the T/C (endpoint: median survival time, dose: 0.75 mg/kg/injection, schedule: Q01DX009 (ip), vehicle: saline) was 100 % of control; the T/C (endpoint: median survival time, dose: 1.5 mg/kg/injection, schedule: Q01DX009 (ip), vehicle: saline) was 100 % of control; the T/C (endpoint: median survival time, dose: 3.0 mg/kg/injection, schedule: Q01DX009 (ip), vehicle: saline) is 105 % of control; the T/C (endpoint: median survival time, dose: 6.0 mg/kg/injection, schedule: Q01DX009 (ip), vehicle: saline) is 120 % of control; the T/C under setting [1] was 111 % of control; the T/C under setting [2] was 100 % of control and 111 % of control. For the same compound, the T/C was 122 % of control (endpoint: median survival time, dose: 31.1 mg/kg/injection, schedule: Q01DX Z (sc), vehicle: saline); 155 % of control under setting [3]; 118 % of control (endpoint: median survival time, dose: 86.4 mg/kg/injection, schedule: Q01DX Z (sc), vehicle: saline); 118 % of control and 120 % of control under setting [4]; 109 % of control (endpoint: median survival time, dose: 144.0 mg/kg/injection, schedule: Q01DX Z (sc), vehicle: saline); 100 % of control and 120 % of control under setting [5].

As for `O=NN(CCF)C(=O)NC1CCCCC1`, the T/C (endpoint: median survival time, dose: 8.4 mg/kg/injection, schedule: Q01DX Z (sc), vehicle: carboxymethylcellulose (CMC)) was 289 % of control; the T/C under setting [6] is 347 % of control; the T/C (endpoint: median survival time, dose: 23.0 mg/kg/injection, schedule: Q01DX Z (oral), vehicle: carboxymethylcellulose (CMC)) is 321 % of control; the T/C under setting [7] is 305 % of control; the T/C (endpoint: median survival time, dose: 39.0 mg/kg/injection, schedule: Q01DX Z (oral), vehicle: carboxymethylcellulose (CMC)) is 242 % of control; the T/C (endpoint: median survival time, dose: 65.0 mg/kg/injection, schedule: Q01DX Z (oral), vehicle: carboxymethylcellulose (CMC)) is 163 % of control. In addition, for the setting “endpoint: median survival time, dose: 108.0 mg/kg/injection, schedule: Q01DX Z (oral), vehicle: carboxymethylcellulose (CMC)”, the T/C is 121 % of control.

As for `O=C1C(NC(=O)C2CCCCC2)=C(N2CC2)C(=O)C(NC(=O)C2CCCCC2)=C1N1CC1`, the T/C is 100 % of control under setting [8]; 100 % of control under setting [9]; 100 % of control (endpoint: median survival time, dose: 500.0 mg/kg/injection, schedule: Q01DX Z (sc), vehicle: carboxymethylcellulose (CMC)); 100 % of control (endpoint: median survival time, dose: 833.0 mg/kg/injection, schedule: Q01DX Z (sc), vehicle: carboxymethylcellulose (CMC)); 100 % of control (endpoint: median survival time, dose: 1388.0 mg/kg/injection, schedule: Q01DX Z (sc), vehicle: carboxymethylcellulose (CMC)).

Turning to `CC(=O)NC(CS)C(=O)O` (stereo not drawn), the T/C was 94 % of control and 97 % of control (endpoint: median survival time, dose: 600.0 mg/kg/injection, schedule: Q01DX001 (ip), vehicle: saline); 94 % of control and 97 % of control (endpoint: median survival time, dose: 600.0 mg/kg/injection, schedule: Q01DX015 (ip), vehicle: saline); 94 % of control and 97 % of control (endpoint: median survival time, dose: 600.0 mg/kg/injection, schedule: Q07DX003 (ip), vehicle: saline); 94 % of control and 96 % of control (endpoint: median survival time, dose: 1000.0 mg/kg/injection, schedule: Q01DX001 (ip), vehicle: saline); 103 % of control and 105 % of control (endpoint: median survival time, dose: 1000.0 mg/kg/injection, schedule: Q01DX015 (ip), vehicle: saline); 99 % of control and 100 % of control (endpoint: median survival time, dose: 1000.0 mg/kg/injection, schedule: Q07DX003 (ip), vehicle: saline).

Regarding `CS(=O)(=O)Nc1ccc(Nc2c3ccccc3nc3cc([N+](=O)[O-])ccc23)cc1`, the T/C by setting is: (endpoint: mean survival time, dose: 1.25 mg/kg/injection, schedule: Q01DX009 (ip), vehicle: Klucel (hydroxypropylcellulose) (HPC)) 108 % of control; (endpoint: mean survival time, dose: 1.25 mg/kg/injection, schedule: Q01DX009 (sc), vehicle: Klucel (hydroxypropylcellulose) (HPC)) 121 % of control; (endpoint: mean survival time, dose: 2.5 mg/kg/injection, schedule: Q01DX009 (ip), vehicle: Klucel (hydroxypropylcellulose) (HPC)) 107 % of control; (endpoint: mean survival time, dose: 2.5 mg/kg/injection, schedule: Q01DX009 (sc), vehicle: Klucel (hydroxypropylcellulose) (HPC)) 108 % of control; (endpoint: mean survival time, dose: 5.0 mg/kg/injection, schedule: Q01DX009 (ip), vehicle: Klucel (hydroxypropylcellulose) (HPC)) 106 % of control; (endpoint: mean survival time, dose: 5.0 mg/kg/injection, schedule: Q01DX009 (sc), vehicle: Klucel (hydroxypropylcellulose) (HPC)) 112 % of control.

Source of the values: PubChem BioAssay AID250 (DTP/NCI, 2004).
